B1: Chemerin: 140 amino acid mouse Chemerin protein of Sequence ID no: 34 (protein, listed as Mus sp.)
chain: TVGTEPELSETQRRSLQVALEEFHKHPPVQLAFQEIGVDRAEEVLFSAGTFVRLEFKLQQTNCPKKDWKKPECTIKPNGRRRKCLACIKMDPKGKILGRIVHCPILKQGPQDPQELQCIKIAQAGEDPHGYFLPGQFAFS

Legend:
[1] = tested on: peritoneal macrophages; experiment: Zymosan recognition / phagocytosis by macrophages (FITC-zymosan, FACS); type: cell-based, mouse
Protocol: For in vitro recognition of zymosan by macrophages, peritoneal exudate cells were isolated by lavage with ice-cold 2 mM EDTA in PBS from mice that had been treated intraperitoneally 4 d before with Biogel beads (2% w/v). Macrophages were plated in 24-well plates at a density of 2.5×10^5 cells per well in Optimem medium. Cells were washed three times with medium before the addition of Fluorescein isothiocyanate (FITC)-labeled zymosan (Invitrogen) in recognition assays at macrophage/particle ratios of 10:1 in the presence of either 0.1 pM, 1 pM, 10 pM, 100 pM or 1 nM Chemerin15. Vehicle=control sample without Chemerin15. FITC-zymosan uptake was followed by FACS analysis and is expressed as a relative recognition index i.e the ratio of %® cells uptaking zymosan×the ratio of geometric means C15 treated macrophages/geometric mean of macrophages treated with vehicle.

[2] = tested on: PMΦ (peritoneal macrophages); experiment: Macrophage chemotaxis assay (modified Boyden chamber); type: cell-based, mouse; conditions: for Macrophage chemotactic activity: migration over 4 h, compared with C140 and RANTES 25 ng/ml
Protocol: PMθ (0.5×10^6) were allowed to migrate towards chemoattractant (Chemerin140 or Chemerin peptides) in the bottom well of a modified Boyden chamber over 4 h. Filters were fixed in 4% formalin, then migrated cell nuclei were stained with DAPI and visualised. Serum free media (SFM) were used as a negative control and the macrophage chemoattractant RANTES (25 ng/ml; 3 nM) as a positive control. The graphs indicate mean Migration Index (Chemoattractant % threshold area/SFM % threshold area)±SEM for each treatment group (n=5-6). p<0.001 ***; p<0.01 **; p<0.05 * relative to SFM treated wells.
PMθ were recruited following a 4 day peritoneal stimulation with BioGEL beads. Peritoneal cavities of male C57B16/J mice were lavaged with 5 ml PBS-2 mM EDTA. Cells were centrifuged and resuspended in RPMI supplemented with 0.5% BSA and 25 mM Hepes. Cells (0.5×10^6) were allowed to migrate towards chemoattractant (C140, C17m or C17m+C140) in the bottom well over 4 h. Filters were fixed in 4% formalin, then nuclei were stained with DAPI and visualised. Serum free media was used as a negative control (−/−). Cells were preincubated with Pertussis toxin (PTX) for 30 mins before the chemotaxis assay. The bar graphs in FIG. 11 show the mean Migration Index±SEM for each treatment group. Each bar represents at least triplicate wells and at least 3 pictures taken per treatment. p<0.001 ***; p<0.01 **; p<0.05 * relative to SFM treated wells unless otherwise stated.
Cell migration was assessed by use of transwell membranes (ChemoTX, 6-mm diameter, 8-μm pore size). Briefly, BioGEL-elicited cells were harvested and placed on transwell membranes (250 000 cells/membrane in RPMI supplemented with 25 mM Hepes and 0.1% bovine serum albumin. Cells were allowed to migrate toward Chemerin peptides (1 pM-100 nM) for 4 h. Signal transduction via G protein-coupled receptors was blocked by preincubating cells with pertussis toxin (PTX, 200 ng/ml, Sigma-Aldrich) for 30 mins before placing cells on transwell membranes. Migrated cells on the underside of membranes were fixed (3% formaldehyde) and stained with DAPI. Migration was quantified as total pixel count of DAPI stained nuclei under the confocal microscope (2 photos/membrane and a minimum of 3 replicate wells per treatment). Images were analyzed using Metamorph Offline software to determine percentage threshold areas (TA) occupied by migrated cells. Migration indices were obtained by dividing treatment TA by serum-free media TA. For secondary chemotaxis assays ChemoTx 3-mm diameter, 8-μm pore membranes were used with 50 000 cells/membrane.

[3] = tested on: PMθ stimulated with Zymosan; experiment: TNFα secretion by murine macrophages stimulated with Zymosan (ELISA); type: cell-based, mouse; conditions: 1 pM pre-treatment 1 h, Zymosan 15 h
Protocol: PMθ were cultured under various conditions: Untreated; Zymosan for 15 h; Chemerin (1 pM) pre-treatment for 1 h+Zymosan for 15 h. The bar graphs show mean expression of TNFα as determined by ELISA±SEM. Experiments were performed with triplicate determinations for each treatment. Representative data from three independent experiments employing cells from different donors are shown in FIG. 12. p<0.001 ***; p<0.01 ** relative to Zymosan-treated samples. Dexa refers to dexamethasone ([…]), nd refers to below the lower limit of detection (0.25 ng/ml).

[4] = tested on: PMθ (peritoneal macrophages); experiment: Checkerboard analysis (chemotaxis versus chemokinesis); type: cell-based, mouse; conditions: for Chemotaxis versus chemokinesis (FIG. 13): C140 10-1000 pM, C15m 10-1000 pM
Protocol: Checkerboard analysis allows differentiation between chemotaxis and chemokinesis. Chemotaxis is indicated by migration toward a higher concentration of chemoattractant in the lower well. Chemokinesis refers to increased non-directional cell movement and occurs regardless of the concentration gradient present. Checkerboard analysis was performed by pre-incubating cells with C140 (10-500 pM) or C15m (10-1000 pM) and allowing them to migrate towards C140 (10-1000 pM) or C15m (10-1000 pM), respectively in the lower well to form a checkerboard of concentrations.
More specifically, PMθ were recruited following a 4 day peritoneal stimulation with BioGEL beads. Peritoneal cavities of male C57B16/J mice were lavaged with 5 ml PBS-2 mM EDTA. Cells were centrifuged and resuspended in RPMI supplemented with 0.5% BSA and 25 mM Hepes. Cells (0.5×10^6) were incubated with C140 or C15m for 30 mins before the chemotaxis assay and then allowed to migrate towards chemoattractant in the bottom well over 4 h. Filters were fixed in 4% formalin, then nuclei were stained with DAPI and visualised. Serum free media (SFM) was used as a negative control (−/−) and the CC chemokine RANTES as a positive control (25 ng/ml). The bar graphs in FIG. 13 show the mean Migration Index±SEM for each treatment group. Each bar represents at least triplicate wells and at least 3 pictures taken per treatment. p<0.001 *** relative to SFM-treated wells.

[5] = tested on: C57B16/J mice, zymosan-induced peritonitis; experiment: Zymosan-induced peritonitis in mice; type: in vivo, mouse; conditions: single i.p. dose; 4 h post-zymosan

Molecule	Macrophage phagocytosis of zymosan (FIG. 15) ([1]; 0.1 pM-1 nM, FITC-zymosan)	Concentration of greatest induction of macrophage phagocytosis ([1]; tested 0.1 pM-1 nM) [pM]	Macrophage chemotactic activity [2]	Concentration of maximal macrophage migration ([2]; tested 1 pM-100 nM) [pM]	Suppression of Zymosan-induced TNF expression (FIG. 12) [3] [%]	Induction of macrophage chemotaxis relative to C140 [4]	Chemotaxis versus chemokinesis (FIG. 13) [4]	Lowest dose with significant anti-inflammatory effects (FIG. 14B) [5] [pg/mouse]	Effect of co-administration on C140-induced macrophage migration (FIG. 11) ([2]; C17m + C140 in bottom well, 4 h)
AGEDPHGYFLPGQFA (listed as Mus sp.) [C15]	induces macrophage phagocytosis of zymosan	10	little chemotactic activity	100	21	much weaker inducer of macrophage chemotaxis	elicit true chemotaxis rather than chemokinesis	4	
AGEDPHGYFLPGQFAFS (listed as Mus sp.) [C17m]			no chemotactic activity		30				did not appear to affect macrophage migration to C140
B1							elicit true chemotaxis rather than chemokinesis		

Source: patent publication US8906865B2, “Treatment of inflammation and/or endotoxic shock” (ISIS Innovation Limited, priority 2007, dated 2014)
